We go through 2 compounds from US5811444A, “Compositions for reducing abnormal stimulation of endothelin receptors and novel compounds” (Roussel Uclaf, priority 1994, dated 1998).

Test [1] concerns the target T1, B receptor of endothelin (Rattus norvegicus, UniProt P21451).
T1 construct: A membrane preparation is produced from the posterior cortex plus cerebellum of a rat; from tissue; host or cells: rat posterior cortex plus cerebellum, membranes
T1 sequence (P21451 27-442): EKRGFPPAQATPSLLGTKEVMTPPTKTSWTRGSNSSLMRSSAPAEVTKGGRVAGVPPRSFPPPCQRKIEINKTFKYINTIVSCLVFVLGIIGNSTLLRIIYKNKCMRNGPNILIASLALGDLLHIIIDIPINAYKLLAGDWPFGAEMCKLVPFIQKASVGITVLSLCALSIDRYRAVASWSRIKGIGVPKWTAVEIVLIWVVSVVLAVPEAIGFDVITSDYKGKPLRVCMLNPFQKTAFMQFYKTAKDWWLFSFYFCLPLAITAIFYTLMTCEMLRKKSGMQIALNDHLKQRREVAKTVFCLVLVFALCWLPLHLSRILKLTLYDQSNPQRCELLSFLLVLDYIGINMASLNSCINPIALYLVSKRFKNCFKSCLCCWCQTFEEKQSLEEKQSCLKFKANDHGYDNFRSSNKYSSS
Briefly: Study of the activity on the B receptor of endothelin (displacement of 125I Endothelin, rat posterior cortex plus cerebellum membranes). In kind it is binding. To be noted: 25 °C, 60 minutes, pH 7.4, read-out: B receptor of endothelin IC/50. The procedure: STUDY OF THE ACTIVITY ON THE B RECEPTOR OF ENDOTHELIN
A membrane preparation is produced from the posterior cortex plus cerebellum of a rat. The tissue is ground up in a POLYTRON in a 50 mM Tris buffer pH=7.4.
After 30 minutes at 25° C. (W.B.) the homogenate is centrifuged at 30000 g for 15 minutes (2 centrifugations with intermediate take-up in the Tris buffer pH. 7.4).
(§1) The pellets are resuspended in an incubation buffer (25 mM Tris, 5 microg/ml pepstatin A, 3 microg/ml aprotinin, 0.1 mM PMSF, 3 mM EDTA, 1 mM EGTA pH 7.4).
(§2) 2 ml aliquots are distributed into hemolysis tubes and ^125 I Endothelin (approximately 50000 dpm/tube) and the product to be studied are added. (The product is first tested at 3×10^-5 M three times). When the tested product displaces more than 50% of the radioactivity specifically bound to the receptor, it is tested again according to a range of 7 concentrations so as to determine the concentration which inhibits the radioactivity specifically bound to the receptor by 50%. In this way the 50% inhibitory concentration is determined.
(§3) The non-specific bond is determined by the addition of 10^-6 M endothelin (three times). After incubation at 25° C. for 60 minutes, putting back in the water bath at 0° C., for 5 minutes, filtering under reduced pressure, rinsing with Tris buffer 7.4, the radioactivity is counted in the presence of scintillating Triton. […]
A general note: Displacement assays read how much labelled ligand stays bound in the presence of the test substance.

Test [2] deals with T2, A receptor of endothelin (Rattus norvegicus, UniProt P26684).
T2 construct: A membrane preparation is produced from the heart (ventricles) of a rat; from tissue; host or cells: rat heart ventricles, membranes
T2 sequence (P26684 21-426): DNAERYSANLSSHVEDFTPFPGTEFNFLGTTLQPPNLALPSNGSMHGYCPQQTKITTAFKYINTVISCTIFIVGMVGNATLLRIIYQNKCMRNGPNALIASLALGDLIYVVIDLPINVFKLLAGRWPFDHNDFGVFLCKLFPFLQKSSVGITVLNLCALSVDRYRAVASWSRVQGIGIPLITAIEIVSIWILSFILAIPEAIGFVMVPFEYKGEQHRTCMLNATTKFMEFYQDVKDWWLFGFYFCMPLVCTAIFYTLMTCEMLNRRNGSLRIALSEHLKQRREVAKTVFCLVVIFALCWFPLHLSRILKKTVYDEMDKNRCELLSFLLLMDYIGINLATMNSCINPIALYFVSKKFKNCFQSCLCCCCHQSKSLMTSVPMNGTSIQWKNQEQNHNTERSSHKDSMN
Briefly: Study of the activity on the A receptor of endothelin (displacement of 125I Endothelin, rat heart ventricle membranes). In kind it is binding. To be noted: rat heart (ventricles) membranes, 25 °C, 60 minutes, pH 7.4, read-out: A receptor of endothelin IC/50. The procedure:
STUDY OF THE ACTIVITY ON THE A RECEPTOR OF ENDOTHELIN
A membrane preparation is produced from the heart (ventricles) of a rat. The tissue is ground up in a POLYTRON in a 50 mM Tris buffer pH=7.4.
After 30 minutes at 25° C. (W.B.) the homogenate is centrifuged at 30000 g for 15 minutes (2 centrifugations with intermediate take up in the Tris buffer pH. 7.4).
as §1, §2, §3

Each structure is given as a SMILES string.

For `CCCCc1nc(S(=O)(=O)c2ccc(OC)cc2)c(C(=O)O)n1Cc1cc2c(cc1Cl)OCO2` [Example 10, 2-butyl-1-((6-chloro-1,3-benzodioxol-5-yl)methyl)-4-((4-methoxyphenyl)sulphonyl)-1H-imidazole-5-carboxylic acid], the IC50 worked out at 250 nM in test [1] and 91 nM in test [2].
For the compound `COc1ccc(Sc2nc(C)n(Cc3cc4c(cc3Cl)OCO4)c2C(=O)O)cc1` [Example 21, 1-((6-chloro-1,3-benzodioxol-5-yl)methyl)-4-((4-methoxyphenyl)thio)-2-methyl-1H-imidazole-5-carboxylic acid], the IC50 in test [1] is 350 nM; in test [2], 110 nM.
